Data taken from PMC9841524, “Structure-Based Rational Design of Small α-Helical Peptides with Broad-Spectrum Activity against Multidrug-Resistant Pathogens” (Journal of Medicinal Chemistry, 2022).
Read-outs that look alike come from different tables or passages of the source. Where no end group is shown, it is not given here.

Assays:
S. aureus (ATCC 29213) = assay: MIC, standard microtiter dilution (CLSI); format: cell-based; conditions: broth microdilution (CLSI), CAMHB, 37 °C, 24 h
Summary of the method: (§1)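 In this CLSI-recommended assay, peptides were serially diluted twofold and combined with bacteria at 10^6 CFU/mL in cation-adjusted Mueller Hinton Broth.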

E. coli (ATCC 25922) = conditions: for MIC, E. coli (ATCC 25922): broth microdilution (CLSI), CAMHB, 37 °C, 24 h
Summary of the method: as §1

E. coli (ATCC BAA-2452) = conditions: Gram-negative, NDM-1; CLSI microdilution, CAMHB, 37 °C, 24 h; highest MIC of three independent experiments in triplicate
Summary of the method: as §1

[1] = system: K. pneumonia (ATCC BAA-2470); conditions: Gram-negative, carbapenem-resistant; CLSI microdilution, CAMHB, 37 °C, 24 h; highest MIC of three independent experiments in triplicate
Summary of the method: as §1

[2] = system: Klebsiella pneumonia (ATCC 13883)
Summary of the method: as §1

[3] = system: P. aeruginosa (ATCC 10145)
Summary of the method: as §1

[4] = system: S. pneumoniae (ATCC 700677); conditions: Gram-positive, multi-drug resistant (penicillin, tetracycline, erythromycin); CAMHB + 2.5% lysed horse blood, 37 °C, 24 h; highest MIC of three independent experiments in triplicate
Summary of the method: as §1

[5] = system: human red blood cells (hRBCs); assay: Hemolytic assay; format: cell-based; conditions: for decrease in the hemolytic activity on replacing Arg with Lys: 7b vs 7a, 8b vs 8a, HC50, hRBC; for HC50 (concentration at which 50% hemolysis was observed): 2 h, 37 °C
Summary of the method: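 Percent hemolysis uses PBS as 0% and 1% Triton X-100 as 100% references, from supernatant absorbance at 567 nm. Red cells (4% in PBS, equal volume) exposed 2 h at 37 °C without agitation to 2-fold serially diluted peptide.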

[6] = CD spectroscopy, helicity; format: physicochemical; design: key to Δ[θ]222 induced by TFE / Δ[θ]222 induced by Liposomes: mean residue molar ellipticity, mdeg cm2/(dmol × res); conditions: for [θ]222 mean residue molar ellipticity, TFE / [θ]222 mean residue molar ellipticity, Liposomes / [θ]222 mean residue molar ellipticity, PBS: CD at 222 nm, 25 °C; for [θ]222 mean residue molar ellipticity, TFE: aqueous buffer containing 50% TFE; for [θ]222 mean residue molar ellipticity, Liposomes / Δ[θ]222 induced by Liposomes: bacterial membrane mimicking liposomes; for [θ]222 mean residue molar ellipticity, Liposomes: peptide:lipid molar ratio 1:1.05; for [θ]222 mean residue molar ellipticity, PBS: phosphate buffer saline pH 7.0; for Δ[θ]222 induced by TFE / Δ[θ]222 induced by Liposomes: difference to PBS; for Δ[θ]222 induced by TFE: 50% TFE; for % of helicity induced by TFE: increase in molar ellipticity at 222 nm in the presence of 50% TFE; for % of helicity induced by Liposomes: increase in molar ellipticity at 222 nm in the presence of liposomes;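 for % of helicity induced by Liposomes: share of the total helicity with liposomes gained over the same peptide in PBS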;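 for % of helicity induced by TFE: share of the total helicity in TFE gained over the same peptide in PBS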
Summary of the method: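 Ellipticity at 222 nm, converted to mean residue molar ellipticity, was measured at 25 °C (three-scan average, 190–260 nm, 1 mm path) in phosphate buffer pH 7.2, 50% TFE, or liposomes at 75 μM lipid, after blank subtraction. Induced helicity is the percent rise at 222 nm versus buffer.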

[7] = 10^6 CFU/mL, highest MIC of three independent experiments in triplicate
[8] = media with 1 mM MgCl2, three independent experiments in triplicate
[9] = media with 2 mM CaCl2, three independent experiments in triplicate
[10] = hRBC suspension 4% in PBS, hemoglobin release at 567 nm, 1% Triton X-100 = 100%
[11] = value in parentheses (μM), hRBC 4% in PBS, 567 nm
[12] = media with 4.5 mM KCl, three independent experiments in triplicate
[13] = media with 6 mM NH4Cl, three independent experiments in triplicate
[14] = Gram-negative, CLSI microdilution, CAMHB, 37 °C, 24 h, highest MIC of three independent experiments in triplicate
[15] = MH media without salt ions or serum, three independent experiments in triplicate

Row | Molecule | MIC, S. aureus (ATCC 29213) (S. aureus (ATCC 29213); [7]) | MIC, S. aureus (ATCC 29213) (S. aureus (ATCC 29213); value in parentheses (μM)) | MIC, E. coli (ATCC 25922), Control (E. coli (ATCC 25922); ATCC 25922, 24 h) | MIC, E. coli (ATCC 25922), FBS (25%) (E. coli (ATCC 25922); ATCC 25922, 24 h) | MIC, E. coli (ATCC 25922), NaCl (E. coli (ATCC 25922); ATCC 25922, 24 h) | MIC, E. coli (ATCC 25922) (E. coli (ATCC 25922); [7]) | MIC, E. coli (ATCC 25922) (E. coli (ATCC 25922); value in parentheses (μM)) | MIC, E. coli (ATCC BAA-2452) (E. coli (ATCC BAA-2452)) | MIC, K. pneumonia (ATCC BAA-2470) [1] | MIC, P. aeruginosa (ATCC 10145) ([3]; ATCC 10145, 24 h) | MIC, S. pneumoniae (ATCC 700677) [4] | HC50 (concentration at which 50% hemolysis was observed) [5, 10] | HC50 (concentration at which 50% hemolysis was observed) [5, 11] | [θ]222 mean residue molar ellipticity, TFE [6] | [θ]222 mean residue molar ellipticity, Liposomes [6] | [θ]222 mean residue molar ellipticity, PBS [6] | Δ[θ]222 induced by TFE [6] | Δ[θ]222 induced by Liposomes [6] | % of helicity induced by TFE [6] | % of helicity induced by Liposomes [6] | also measured
1 | KWIKKWIKWWKK-NH2 [7b] | 6.2 µg/mL | 3.53 µM | 6.2 µg/mL | 50 µg/mL | 25 µg/mL | 6.2 µg/mL | 3.53 µM | 6.2 µg/mL | 25 µg/mL | 6.2 µg/mL | 25 µg/mL | 460 µg/mL | 261.77 µM | -10800 mdeg cm2/(dmol × res) | -12345 mdeg cm2/(dmol × res) | -3016 mdeg cm2/(dmol × res) | -7784 | -9328 | 72.06% | 75.56% | MIC, E. coli (ATCC 25922), KCl (E. coli (ATCC 25922); ATCC 25922, 24 h): 25 µg/mL; MIC, E. coli (ATCC 25922), NH4Cl (E. coli (ATCC 25922); ATCC 25922, 24 h): 25 µg/mL; MIC, E. coli (ATCC 25922), MgCl2 (E. coli (ATCC 25922); [8]): 12.5 µg/mL; MIC, E. coli (ATCC 25922), CaCl2 (E. coli (ATCC 25922); [9]): 12.5 µg/mL; MIC, Klebsiella pneumonia (ATCC 13883) ([2]; ATCC 13883, 24 h): 25 µg/mL; decrease in the hemolytic activity on replacing Arg with Lys [5]: approximately 5 fold
2 | KWLKKWLKWWKK-NH2 [8b] | 3.1 µg/mL | 1.76 µM | 6.2 µg/mL | 25 µg/mL | 25 µg/mL | 6.2 µg/mL | 3.53 µM | 6.2 µg/mL | 12.5 µg/mL | 6.2 µg/mL | 12.5 µg/mL | – | 159.34 µM | -15887 mdeg cm2/(dmol × res) | -19313 mdeg cm2/(dmol × res) | -6387 mdeg cm2/(dmol × res) | -9499 | -12926 | 59.79% | 66.92% | MIC, E. coli (ATCC 25922), CaCl2 (E. coli (ATCC 25922); ATCC 25922, 24 h): 25 µg/mL; MIC, E. coli (ATCC 25922), MgCl2 (E. coli (ATCC 25922); ATCC 25922, 24 h): 25 µg/mL; MIC, E. coli (ATCC 25922), KCl (E. coli (ATCC 25922); [12]): 12.5 µg/mL; MIC, E. coli (ATCC 25922), NH4Cl (E. coli (ATCC 25922); [13]): 12.5 µg/mL; MIC, Klebsiella pneumonia (ATCC 13883) [2, 14]: 12.5 µg/mL; decrease in the hemolytic activity on replacing Arg with Lys [5]: approximately 5 fold; HC50 ([5]; abstract, hRBC): 280 µg/mL
3 | RWLRRWLRWWRR-NH2 [8a] | 6.2 µg/mL | 3.22 µM | – | > 50 µg/mL | > 50 µg/mL | 12.5 µg/mL | 6.49 µM | 12.5 µg/mL | 12.5 µg/mL | 6.2 µg/mL | 12.5 µg/mL | 45 µg/mL | 23.37 µM | -10811 mdeg cm2/(dmol × res) | -15616 mdeg cm2/(dmol × res) | -4794 mdeg cm2/(dmol × res) | -6017 | -10822 | 55.65% | 69.30% | MIC, E. coli (ATCC 25922), CaCl2 (E. coli (ATCC 25922); ATCC 25922, 24 h): 25 µg/mL; MIC, E. coli (ATCC 25922), KCl (E. coli (ATCC 25922); ATCC 25922, 24 h): 25 µg/mL; MIC, E. coli (ATCC 25922), MgCl2 (E. coli (ATCC 25922); ATCC 25922, 24 h): 50 µg/mL; MIC, E. coli (ATCC 25922), NH4Cl (E. coli (ATCC 25922); ATCC 25922, 24 h): 25 µg/mL; MIC, E. coli (ATCC 25922), Control (E. coli (ATCC 25922); [15]): 12.5 µg/mL; MIC, Klebsiella pneumonia (ATCC 13883) [2, 14]: 12.5 µg/mL
4 | CCCCCCCCCC(=O)N[C@@H](Cc1c[nH]c2ccccc12)C(=O)N[C@H](CC(N)=O)C(=O)N[C@@H](CC(=O)O)C(=O)N[C@@H]1C(=O)NCC(=O)N[C@@H](CCCN)C(=O)N[C@@H](CC(=O)O)C(=O)N[C@H](C)C(=O)N[C@@H](CC(=O)O)C(=O)NCC(=O)N[C@H](CO)C(=O)N[C@@H]([C@H](C)CC(=O)O)C(=O)N[C@@H](CC(=O)c2ccccc2N)C(=O)O[C@@H]1C [daptomycin, reference compound] | 0.7 µg/mL | 0.43 µM | – | – | – | – | – | – | – | – | 12.5 µg/mL | – | – | – | – | – | – | – | – | – | –
5 | RWIRRWIRWWRR-NH2 [7a] | 6.2 µg/mL | 3.22 µM | – | 50 µg/mL | 25 µg/mL | 6.2 µg/mL | 3.22 µM | 12.5 µg/mL | 12.5 µg/mL | – | 25 µg/mL | 90 µg/mL | 46.74 µM | -8205 mdeg cm2/(dmol × res) | -11307 mdeg cm2/(dmol × res) | -2471 mdeg cm2/(dmol × res) | -5734 | -8836 | 69.88% | 78.14% | MIC, E. coli (ATCC 25922), Control (E. coli (ATCC 25922); [15]): 6.2 µg/mL; MIC, E. coli (ATCC 25922), MgCl2 (E. coli (ATCC 25922); [8]): 12.5 µg/mL; MIC, E. coli (ATCC 25922), CaCl2 (E. coli (ATCC 25922); [9]): 12.5 µg/mL; MIC, E. coli (ATCC 25922), KCl (E. coli (ATCC 25922); [12]): 12.5 µg/mL; MIC, E. coli (ATCC 25922), NH4Cl (E. coli (ATCC 25922); [13]): 12.5 µg/mL; MIC, Klebsiella pneumonia (ATCC 13883) ([2]; ATCC 13883, 24 h): 25 µg/mL; MIC, P. aeruginosa (ATCC 10145) [3, 14]: 12.5 µg/mL
